Data on 5 compounds can be found in patent publication EP0908457B1, “3-(1,2-benzisothiazol- and isoxazol-5-Y1)-2,4(1H,3H)-pyrimidinedione or thione and 3-(1,2-benzisothiazol- and isoxazol-5-y1)-4(3H)-pyrimidinone or thione herbicidal agents” (BASF AKTIENGESELLSCHAFT, priority 1997, dated 1999).

In data set [1] the test system is Echinochloa oryzoides (Ard.) Fritsch. The data set is described as follows: Preemergence weed control under flooded paddy conditions, ECHORC (Watergrass (Calif.)). The data set is classed as in vivo. Particulars: preemergence weeds, flooded paddy, herbicidal effect rating 0-9, three to four weeks after treatment.
A further data set relates to Cyperus iria. Put plainly: Preemergence weed control under flooded paddy conditions, CYPIR (Rice Flatsedge). The data set is classed as in vivo. Particulars: preemergence weeds, flooded paddy, herbicidal effect rating 0-9, three to four weeks after treatment.
The subject of data set [2] is Cyperus serotinus, Rottb. Put plainly: Preemergence weed control under flooded paddy conditions, CYPSE (Flatsedge). The data set is classed as in vivo. Particulars: preemergence weeds, herbicidal effect rating 0-9, three to four weeks after treatment.
Data set [3] has as its system Monochoria vaginalis, Presl. Put plainly: Preemergence weed control under flooded paddy conditions, MOOVA (Monochoria). Particulars: preemergence weeds, flooded paddy, herbicidal effect rating 0-9, three to four weeks after treatment. The data set is classed as in vivo.
The test system of the next data set is Sagittaria pygmaea, L. The data set is described as follows: Preemergence weed control under flooded paddy conditions, SAGPY (Arrowhead (Pygmaea)). The data set is classed as in vivo. Particulars: preemergence weeds, flooded paddy, herbicidal effect rating 0-9, three to four weeks after treatment.
Data set [4] concerns Oryza sativa, (L.) Tebonnet. Put plainly: Rice tolerance to post-transplant applications under flooded paddy conditions (Example 187), ORYSAT (Rice, Tebonnet). Particulars: herbicidal effect rating 0-9, three to four weeks after treatment.

Consider `Cn1c(C(F)(F)F)cc(=O)n(-c2ccc3snc(/C=N/Nc4ccccc4)c3c2)c1=O` [Example 408, 1,2-Benzisothiazole-3-carboxaldehyde, 5-[3,6-dihydro-3-methyl-2,6-dioxo-4-(trifluoromethyl)-1(2H)-pyrimidinyl]-, 3-(phenylhydrazone), (E)-], for which the ECHORC in data set [1] (0.0320 kg/ha) is given as 2.0; in data set [1] (0.0620 kg/ha), 3.0; in data set [1] (0.1250 kg/ha), 6.0; in data set [1] (0.2500 kg/ha), 7.0. The CYPIR in the data set with Cyperus iria (0.0320 kg/ha) was found to be 6.0; in the data set with Cyperus iria (0.0620 kg/ha), 9.0; in the data set on Cyperus iria (0.1250 kg/ha), 9.0; in the data set on Cyperus iria (0.2500 kg/ha), 9.0. Moreover, the CYPSE came to 0.0 in data set [2] (0.0320 kg/ha), 0.0 in data set [2] (0.0620 kg/ha), 5.0 in data set [2] (0.1250 kg/ha) and 6.0 in data set [2] (0.2500 kg/ha). Further, the MOOVA in data set [3] (0.0320 kg/ha) came to 7.0; in data set [3] (0.0620 kg/ha), 9.0; in data set [3] (0.1250 kg/ha) it was 9.0; in data set [3] (0.2500 kg/ha) it was 9.0. In addition, the SAGPY with Sagittaria pygmaea, L. (0.0320 kg/ha) was found to be 0.0; with Sagittaria pygmaea, L. (0.0620 kg/ha), 0.0; with Sagittaria pygmaea, L. (0.1250 kg/ha) it was 4.0; with Sagittaria pygmaea, L. (0.2500 kg/ha) it was 6.0. Further, the ORYSAT is on record as 0.0 in data set [4] (0.0320 kg/ha), 2.0 in data set [4] (0.0620 kg/ha), 2.0 in data set [4] (0.1250 kg/ha) and 3.0 in data set [4] (0.2500 kg/ha).
As for `CN(C)/N=C/c1nsc2ccc(-n3c(=O)cc(C(F)(F)F)n(C)c3=O)cc12` [Example 409, 1,2-Benzisothiazole-3-carboxaldehyde, 5-[3,6-dihydro-3-methyl-2,6-dioxo-4-(trifluoromethyl)-1(2H)-pyrimidinyl]-, 3-(dimethylhydrazone), (E)-], the ECHORC in data set [1] (0.0320 kg/ha) is 3.0; in data set [1] (0.0620 kg/ha), 4.0; in data set [1] (0.1250 kg/ha) it was 9.0; in data set [1] (0.2500 kg/ha), 9.0. For the same compound, the CYPIR in the data set with Cyperus iria (0.0320 kg/ha) is on record as 7.0; with Cyperus iria (0.0620 kg/ha), 9.0; with Cyperus iria (0.1250 kg/ha) it was 9.0; in the data set with Cyperus iria (0.2500 kg/ha) it was 9.0. The CYPSE in data set [2] (0.0320 kg/ha) was found to be 2.0; in data set [2] (0.0620 kg/ha), 5.0; in data set [2] (0.1250 kg/ha) it was 9.0; in data set [2] (0.2500 kg/ha), 9.0. Also, the MOOVA in data set [3] (0.0320 kg/ha), in data set [3] (0.0620 kg/ha), in data set [3] (0.1250 kg/ha) and in data set [3] (0.2500 kg/ha) was 9.0 throughout. Besides, the SAGPY in the data set with Sagittaria pygmaea, L. (0.0320 kg/ha) stood at 2.0; with Sagittaria pygmaea, L. (0.0620 kg/ha), 4.0; in the data set on Sagittaria pygmaea, L. (0.1250 kg/ha), 7.0; in the data set on Sagittaria pygmaea, L. (0.2500 kg/ha) it was 9.0. Also, the ORYSAT in data set [4] (0.0320 kg/ha) was determined as 3.0; in data set [4] (0.0620 kg/ha), 5.0; in data set [4] (0.1250 kg/ha), 7.0; in data set [4] (0.2500 kg/ha), 9.0.
Consider `Cn1c(C(F)(F)F)cc(=O)n(-c2ccc3snc(C(=O)OCCCO)c3c2)c1=O` [Example 410, 1,2-Benzisothiazole-3-carboxylic acid, 5-[3,6-dihydro-3-methyl-2,6-dioxo-4-(trifluoromethyl)-1(2H)-pyrimidinyl]-, 3-hydroxypropyl ester], for which the ECHORC in data set [1] (0.0320 kg/ha) was determined as 0.0; in data set [1] (0.0620 kg/ha), 0.0; in data set [1] (0.1250 kg/ha), 9.0; in data set [1] (0.2500 kg/ha), 9.0. The CYPIR with Cyperus iria (0.0320 kg/ha), in the data set on Cyperus iria (0.0620 kg/ha), in the data set with Cyperus iria (0.1250 kg/ha) and with Cyperus iria (0.2500 kg/ha) was 9.0 throughout. For the same compound, the CYPSE is on record as 2.0 in data set [2] (0.0320 kg/ha), 5.0 in data set [2] (0.0620 kg/ha), 9.0 in data set [2] (0.1250 kg/ha) and 9.0 in data set [2] (0.2500 kg/ha). The MOOVA in data set [3] (0.0320 kg/ha), in data set [3] (0.0620 kg/ha), in data set [3] (0.1250 kg/ha) and in data set [3] (0.2500 kg/ha) was 9.0 throughout. Further, the SAGPY in the data set with Sagittaria pygmaea, L. (0.0320 kg/ha) came out at 3.0; in the data set with Sagittaria pygmaea, L. (0.0620 kg/ha), 7.0; with Sagittaria pygmaea, L. (0.1250 kg/ha), 9.0; with Sagittaria pygmaea, L. (0.2500 kg/ha), 9.0. The ORYSAT in data set [4] (0.0320 kg/ha) amounted to 0.0; in data set [4] (0.0620 kg/ha), 3.0; in data set [4] (0.1250 kg/ha), 5.0; in data set [4] (0.2500 kg/ha), 7.0.
Turning to `CN(Cc1ccc(Cl)cc1)S(=O)(=O)NC(=O)c1nsc2ccc(-n3c(=O)cc(C(F)(F)F)n(C)c3=O)cc12` [Example 420, 1,2-Benzisothiazole-3-carboxamide, N-[(p-chlorobenzyl)methylsulfamoyl]-5-[3,6-dihydro-3-methyl-2,6-dioxo-4-(trifluoromethyl)-1(2H)-pyrimidinyl]-], the ECHORC in data set [1] (0.0320 kg/ha), in data set [1] (0.0620 kg/ha), in data set [1] (0.1250 kg/ha) and in data set [1] (0.2500 kg/ha) was 7.0 throughout. For the same compound, the CYPIR was 2.0 in the data set on Cyperus iria (0.0320 kg/ha), 4.0 with Cyperus iria (0.0620 kg/ha), 6.0 with Cyperus iria (0.1250 kg/ha) and 6.0 in the data set with Cyperus iria (0.2500 kg/ha). The CYPSE in data set [2] (0.2500 kg/ha) turned out to be 0.0. Moreover, the MOOVA in data set [3] (0.0320 kg/ha), in data set [3] (0.0620 kg/ha), in data set [3] (0.1250 kg/ha) and in data set [3] (0.2500 kg/ha) was 9.0 throughout. Further, the SAGPY with Sagittaria pygmaea, L. (0.0320 kg/ha) was 0.0; with Sagittaria pygmaea, L. (0.0620 kg/ha), 0.0; in the data set with Sagittaria pygmaea, L. (0.1250 kg/ha), 2.0; with Sagittaria pygmaea, L. (0.2500 kg/ha), 3.0. In addition, the ORYSAT in data set [4] (0.0320 kg/ha) was 0.0; in data set [4] (0.0620 kg/ha), 2.0; in data set [4] (0.1250 kg/ha) it was 3.0; in data set [4] (0.2500 kg/ha) it was 5.0.
Consider `Cn1c(C(F)(F)F)cc(=O)n(-c2ccc3snc(C(=O)SCc4ccccc4)c3c2)c1=O` [Example 421, 1,2-Benzisothiazole-3-thiocarboxylic acid, 5-[3,6-dihydro-3-methyl-2,6-dioxo-4-(trifluoromethyl)-1(2H)-pyrimidinyl]-, S-benzyl ester], for which the ECHORC is recorded as 5.0 in data set [1] (0.0320 kg/ha), 5.0 in data set [1] (0.0620 kg/ha), 7.0 in data set [1] (0.1250 kg/ha) and 9.0 in data set [1] (0.2500 kg/ha). Besides, the CYPIR with Cyperus iria (0.0320 kg/ha) is given as 2.0; in the data set with Cyperus iria (0.0620 kg/ha), 6.0; in the data set on Cyperus iria (0.1250 kg/ha) it was 8.0; in the data set with Cyperus iria (0.2500 kg/ha), 9.0. The CYPSE in data set [2] (0.2500 kg/ha) is recorded as 4.0. Besides, the MOOVA was 5.0 in data set [3] (0.0320 kg/ha), 6.0 in data set [3] (0.0620 kg/ha), 7.0 in data set [3] (0.1250 kg/ha) and 9.0 in data set [3] (0.2500 kg/ha). Further, the SAGPY amounted to 0.0 in the data set on Sagittaria pygmaea, L. (0.0320 kg/ha); 0.0 in the data set with Sagittaria pygmaea, L. (0.0620 kg/ha); 0.0 in the data set on Sagittaria pygmaea, L. (0.1250 kg/ha); 2.0 in the data set with Sagittaria pygmaea, L. (0.2500 kg/ha). Moreover, the ORYSAT stood at 0.0 in data set [4] (0.0320 kg/ha), 0.0 in data set [4] (0.0620 kg/ha), 0.0 in data set [4] (0.1250 kg/ha) and 2.0 in data set [4] (0.2500 kg/ha).
